Assay results reported in the NIST ThermoML archive (doi:10.1021/je4007162).
Numbers after ± are expanded uncertainties.

Assay: molar enthalpy of vaporization or sublimation
Conditions: 298.15 K; Liquid; calvet microcalorimetry

| molar enthalpy [kcal/mol] | Structure (SMILES) |
| --- | --- |
| 11.1 ± 0.191 | C1COCCN1 [tetrahydro-1,4-oxazine] |
| 12.9 ± 0.717 | C1CSCCN1 [thiomorpholine] |
